#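 The compound was tested at five concentrations on cells cultured in 96-well plates, with a 48-hour exposure period. TGI marks complete inhibition of growth.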
# How the values were obtained:
# Assay in all cases: DTP human tumour cell line panel, 48 h
# 786-0 renal = tested on: 786-0 renal
# A498 renal = tested on: A498 renal
# A549 NSCLC = tested on: A549 NSCLC
# ACHN renal = tested on: ACHN renal
# BT-549 breast = tested on: BT-549 breast
# CAKI-1 renal = tested on: CAKI-1 renal
# CCRF-CEM leukemia = tested on: CCRF-CEM leukemia
# COLO 205 colon = tested on: COLO 205 colon
# DLD-1 colon = tested on: DLD-1 colon
# DMS 114 small cell lung = tested on: DMS 114 small cell lung
# DMS 273 small cell lung = tested on: DMS 273 small cell lung
# DU-145 prostate = tested on: DU-145 prostate
# EKVX NSCLC = tested on: EKVX NSCLC
# HCC-2998 colon = tested on: HCC-2998 colon
# HCT-116 colon = tested on: HCT-116 colon
# HCT-15 colon = tested on: HCT-15 colon
# HL-60(TB) leukemia = tested on: HL-60(TB) leukemia
# HOP-62 NSCLC = tested on: HOP-62 NSCLC
# HOP-92 NSCLC = tested on: HOP-92 NSCLC
# HS 578T breast = tested on: HS 578T breast
# HT29 colon = tested on: HT29 colon
# IGROV1 ovarian = tested on: IGROV1 ovarian
# K-562 leukemia = tested on: K-562 leukemia
# KM12 colon = tested on: KM12 colon
# KM20L2 colon = tested on: KM20L2 colon
# LOX IMVI melanoma = tested on: LOX IMVI melanoma
# LXFL 529 NSCLC = tested on: LXFL 529 NSCLC
# M14 melanoma = tested on: M14 melanoma
# M19-MEL melanoma = tested on: M19-MEL melanoma
# MALME-3M melanoma = tested on: MALME-3M melanoma
# MCF7 breast = tested on: MCF7 breast
# MDA-MB-231 breast = tested on: MDA-MB-231 breast
# MDA-MB-435 = tested on: MDA-MB-435
# MDA-N = tested on: MDA-N
# MOLT-4 leukemia = tested on: MOLT-4 leukemia
# NCI-H226 lung = tested on: NCI-H226 lung
# NCI-H23 lung = tested on: NCI-H23 lung
# NCI-H460 lung = tested on: NCI-H460 lung
# NCI-H522 lung = tested on: NCI-H522 lung
# NCI/ADR-RES ovarian = tested on: NCI/ADR-RES ovarian
# OVCAR-3 ovarian = tested on: OVCAR-3 ovarian
# OVCAR-4 ovarian = tested on: OVCAR-4 ovarian
# OVCAR-5 ovarian = tested on: OVCAR-5 ovarian
# OVCAR-8 ovarian = tested on: OVCAR-8 ovarian
# PC-3 prostate = tested on: PC-3 prostate
# RPMI-8226 leukemia = tested on: RPMI-8226 leukemia
# RXF 393 renal = tested on: RXF 393 renal
# RXF-631 renal = tested on: RXF-631 renal
# SF-268 CNS = tested on: SF-268 CNS
# SF-295 CNS = tested on: SF-295 CNS
# SF-539 CNS = tested on: SF-539 CNS
# SK-MEL-2 melanoma = tested on: SK-MEL-2 melanoma
# SK-MEL-28 melanoma = tested on: SK-MEL-28 melanoma
# SK-MEL-5 melanoma = tested on: SK-MEL-5 melanoma
# SK-OV-3 ovarian = tested on: SK-OV-3 ovarian
# SN12C renal = tested on: SN12C renal
# SNB-19 CNS = tested on: SNB-19 CNS
# SNB-75 CNS = tested on: SNB-75 CNS
# SNB-78 CNS = tested on: SNB-78 CNS
# SR leukemia = tested on: SR leukemia
# SW-620 colon = tested on: SW-620 colon
# T-47D breast = tested on: T-47D breast
# TK-10 renal = tested on: TK-10 renal
# U251 CNS = tested on: U251 CNS
# UACC-257 melanoma = tested on: UACC-257 melanoma
# UACC-62 melanoma = tested on: UACC-62 melanoma
# UO-31 renal = tested on: UO-31 renal
# XF 498 CNS = tested on: XF 498 CNS
smiles,measurement,setting,value
COC1=CC(=O)c2c(ccc3ncnc(N)c23)C1=O,TGI,786-0 renal,3.35 µM
same,TGI,A498 renal,3.9 µM
same,TGI,A549 NSCLC,8.75 µM
same,TGI,ACHN renal,3.16 µM
same,TGI,BT-549 breast,3.2 µM
same,TGI,CAKI-1 renal,3.27 µM
same,TGI,CCRF-CEM leukemia,1.95 µM
same,TGI,COLO 205 colon,6.77 µM
same,TGI,DLD-1 colon,4.44 µM
same,TGI,DMS 114 small cell lung,3.43 µM
same,TGI,DMS 273 small cell lung,10.7 µM
same,TGI,DU-145 prostate,3.34 µM
same,TGI,EKVX NSCLC,4.03 µM
same,TGI,HCC-2998 colon,15.1 µM
same,TGI,HCT-116 colon,3.33 µM
same,TGI,HCT-15 colon,4.13 µM
same,TGI,HL-60(TB) leukemia,1.49 µM
same,TGI,HOP-62 NSCLC,6.54 µM
same,TGI,HOP-92 NSCLC,4 µM
same,TGI,HS 578T breast,7.52 µM
same,TGI,HT29 colon,4.44 µM
same,TGI,IGROV1 ovarian,3.41 µM
same,TGI,K-562 leukemia,1.58 µM
same,TGI,KM12 colon,11.3 µM
same,TGI,KM20L2 colon,34.7 µM
same,TGI,LOX IMVI melanoma,2.68 µM
same,TGI,LXFL 529 NSCLC,3.2 µM
same,TGI,M14 melanoma,3.38 µM
same,TGI,M19-MEL melanoma,3.14 µM
same,TGI,MALME-3M melanoma,5.43 µM
same,TGI,MCF7 breast,4.12 µM
same,TGI,MDA-MB-231 breast,4.8 µM
same,TGI,MDA-MB-435,0.646 µM
same,TGI,MDA-N,0.889 µM
same,TGI,MOLT-4 leukemia,1.5 µM
same,TGI,NCI-H226 lung,4.6 µM
same,TGI,NCI-H23 lung,3.76 µM
same,TGI,NCI-H460 lung,12.6 µM
same,TGI,NCI-H522 lung,5.62 µM
same,TGI,NCI/ADR-RES ovarian,6.39 µM
same,TGI,OVCAR-3 ovarian,3.03 µM
same,TGI,OVCAR-4 ovarian,1.28 µM
same,TGI,OVCAR-5 ovarian,3.81 µM
same,TGI,OVCAR-8 ovarian,7.59 µM
same,TGI,PC-3 prostate,6.53 µM
same,TGI,RPMI-8226 leukemia,3.62 µM
same,TGI,RXF 393 renal,3.3 µM
same,TGI,RXF-631 renal,16.4 µM
same,TGI,SF-268 CNS,6.72 µM
same,TGI,SF-295 CNS,6.76 µM
same,TGI,SF-539 CNS,3.41 µM
same,TGI,SK-MEL-2 melanoma,7.08 µM
same,TGI,SK-MEL-28 melanoma,4.94 µM
same,TGI,SK-MEL-5 melanoma,3.12 µM
same,TGI,SK-OV-3 ovarian,16.3 µM
same,TGI,SN12C renal,3.42 µM
same,TGI,SNB-19 CNS,5.47 µM
same,TGI,SNB-75 CNS,6.62 µM
same,TGI,SNB-78 CNS,4.89 µM
same,TGI,SR leukemia,0.631 µM
same,TGI,SW-620 colon,4.03 µM
same,TGI,T-47D breast,3.42 µM
same,TGI,TK-10 renal,8.75 µM
same,TGI,U251 CNS,3.39 µM
same,TGI,UACC-257 melanoma,3.69 µM
same,TGI,UACC-62 melanoma,3.42 µM
same,TGI,UO-31 renal,5.09 µM
c1ccc2c(c1)c1ccccc1c1n[se]nc21,TGI,786-0 renal,> 100 µM
same,TGI,A498 renal,67.1 µM
same,TGI,A549 NSCLC,> 100 µM
same,TGI,ACHN renal,> 100 µM
same,TGI,CAKI-1 renal,> 100 µM
same,TGI,CCRF-CEM leukemia,> 100 µM
same,TGI,COLO 205 colon,> 100 µM
same,TGI,DLD-1 colon,> 100 µM
same,TGI,DMS 114 small cell lung,> 100 µM
same,TGI,DMS 273 small cell lung,> 100 µM
same,TGI,EKVX NSCLC,> 100 µM
same,TGI,HCT-15 colon,> 100 µM
same,TGI,HL-60(TB) leukemia,> 100 µM
same,TGI,HT29 colon,> 100 µM
same,TGI,IGROV1 ovarian,> 100 µM
same,TGI,K-562 leukemia,> 100 µM
same,TGI,KM12 colon,> 100 µM
same,TGI,KM20L2 colon,> 100 µM
same,TGI,LOX IMVI melanoma,> 100 µM
same,TGI,LXFL 529 NSCLC,48.6 µM
same,TGI,M14 melanoma,> 100 µM
same,TGI,MALME-3M melanoma,> 100 µM
same,TGI,MOLT-4 leukemia,> 100 µM
same,TGI,NCI-H23 lung,> 100 µM
same,TGI,NCI-H460 lung,> 100 µM
same,TGI,NCI-H522 lung,> 100 µM
same,TGI,OVCAR-4 ovarian,> 100 µM
same,TGI,OVCAR-5 ovarian,> 100 µM
same,TGI,OVCAR-8 ovarian,> 100 µM
same,TGI,RPMI-8226 leukemia,> 100 µM
same,TGI,RXF 393 renal,> 100 µM
same,TGI,RXF-631 renal,> 100 µM
same,TGI,SF-268 CNS,> 100 µM
same,TGI,SF-295 CNS,> 100 µM
same,TGI,SF-539 CNS,92.2 µM
same,TGI,SK-MEL-2 melanoma,> 100 µM
same,TGI,SK-MEL-28 melanoma,> 100 µM
same,TGI,SK-MEL-5 melanoma,> 100 µM
same,TGI,SK-OV-3 ovarian,64.3 µM
same,TGI,SN12C renal,> 100 µM
same,TGI,SNB-19 CNS,> 100 µM
same,TGI,SNB-75 CNS,59 µM
same,TGI,SNB-78 CNS,> 100 µM
same,TGI,SW-620 colon,> 100 µM
same,TGI,TK-10 renal,> 100 µM
same,TGI,U251 CNS,> 100 µM
same,TGI,UACC-257 melanoma,> 100 µM
same,TGI,UACC-62 melanoma,> 100 µM
same,TGI,UO-31 renal,> 100 µM
same,TGI,XF 498 CNS,77.2 µM
